US8846928B2 (Portola Pharmaceuticals, Inc., priority 2010, dated 2014)

molecular target: T1, full length active recombinant SYK enzyme (Homo sapiens, UniProt P43405); test: Inhibition of Syk tyrosine phosphorylation activity (LANCE TR-FRET kinase assay); assay type: biochemical
T1 construct: full length active recombinant SYK enzyme (Millipore, Calif.); purchased Millipore

| Structure (SMILES) | IC50 [nM] |
| --- | --- |
| Cc1cc(Nc2cc(N[C@@H](C(N)=O)C3CCCCC3)ccc2C(N)=O)sn1 [Example 22, (R)-4-(2-amino-1-cyclohexyl-2-oxoethylamino)-2-(3-methylisothiazol-5-ylamino)benzamide] | 10 to 100 |
| NC(=O)c1cc(F)c(N[C@@H]2CCCC[C@@H]2N)nc1Nc1ccc(-n2cccn2)cc1 [Example 52, 2-(4-(1H-pyrazol-1-yl)phenylamino)-6-((1R,2S)-2-aminocyclohexylamino)-5-fluoronicotinamide] | 1 to 10 |
| Cc1cc(Nc2cc(N[C@H](CC3CCCCC3)C(N)=O)ccc2C(N)=O)sn1 [Example 17, (R)-4-(1-amino-3-cyclohexyl-1-oxopropan-2-ylamino)-2-(3-methylisothiazol-5-ylamino)benzamide] | 10 to 100 |
| NC(=O)c1cc(F)c(N[C@@H]2CCCC[C@@H]2N)nc1Nc1cccc2ccncc12 [Example 75, 6-((1R,2S)-2-aminocyclohexylamino)-5-fluoro-2-(isoquinolin-8-ylamino)nicotinamide] | 100 to 1000 |
| Cc1cc(Nc2nc(N[C@@H]3CCCC[C@@H]3N)c(F)cc2C(N)=O)ccn1 [Example 85, 6-((1R,2S)-2-aminocyclohexylamino)-5-fluoro-2-(2-methylpyridin-4-ylamino)nicotinamide] | 1 to 10 |
| NC(=O)c1cc(F)c(N[C@@H]2CCCC[C@@H]2N)nc1Nc1ccc2ncccc2c1 [Example 66, 6-((1R,2S)-2-aminocyclohexylamino)-5-fluoro-2-(quinolin-6-ylamino)nicotinamide] | < 1 |
| NC(=O)c1cc(F)c(N[C@H](CC2CC2)C(N)=O)nc1Nc1ccc2cccnc2c1 [Example 250, (R)-6-(1-amino-3-cyclopropyl-1-oxopropan-2-ylamino)-5-fluoro-2-(quinolin-7-ylamino)nicotinamide] | 10 to 100 |
| NC(=O)c1ccc(N[C@@H]2CCCC[C@@H]2N)nc1Nc1cccc(-c2ncccn2)c1 [Example 133, 2-(3-(pyrimidin-2-yl)phenylamino)-6-((1R,2S)-2-aminocyclohexylamino)nicotinamide] | 10 to 100 |
| NC(=O)c1cc(F)c(N[C@@H]2CCCC[C@@H]2N)nc1Nc1ccc(-n2cccc2)cc1 [Example 188, 2-(4-(1H-pyrrol-1-yl)phenylamino)-6-((1R,2S)-2-aminocyclohexylamino)-5-fluoronicotinamide] | 1 to 10 |
| Cc1cc(Nc2c(C(N)=O)ccc(N[C@H](CC(C)C)C(N)=O)c2F)sn1 [Example 23, (R)-4-(1-amino-4-methyl-1-oxopentan-2-ylamino)-3-fluoro-2-(3-methylisothiazol-5-ylamino)benzamide] | > 1000 |
| NC(=O)c1ccc(N[C@@H]2CCCC[C@@H]2N)cc1Nc1cc(-c2ccccc2)no1 [Example 7, 4-((1R,2S)-2-aminocyclohexylamino)-2-(3-phenylisoxazol-5-ylamino)benzamide] | 10 to 100 |
| Cc1cccc(Nc2nc(N[C@@H]3CCCC(F)(F)[C@@H]3N)c(F)cc2C(N)=O)c1 [Example 335, 6-((1R,2R)-2-amino-3,3-difluorocyclohexylamino)-5-fluoro-2-(m-tolylamino)nicotinamide] | 10 to 100 |
| CC[C@@H](Nc1cc(Nc2cc(C)ns2)c(C(N)=O)cc1F)C(N)=O [Example 26, (R)-4-(1-amino-1-oxobutan-2-ylamino)-5-fluoro-2-(3-methylisothiazol-5-ylamino)benzamide] | 10 to 100 |
| C[C@H](CN)Nc1nc(Nc2cccc(-n3nccn3)c2)c(C(N)=O)cc1C#N [Example 109, (R)-2-(3-(2H-1,2,3-triazol-2-yl)phenylamino)-6-(1-aminopropan-2-ylamino)-5-cyanonicotinamide] | 10 to 100 |
| CC[C@H](CN)Nc1nc(Nc2ccc3ncsc3c2)c(C(N)=O)cc1F [Example 93, (R)-6-(1-aminobutan-2-ylamino)-2-(benzo[d]thiazol-6-ylamino)-5-fluoronicotinamide] | 1 to 10 |
| Cc1cc(Nc2nc(N[C@@H]3CCCC[C@@H]3N)ccc2C(N)=O)sn1 [Example 182, 6-((1R,2S)-2-aminocyclohexylamino)-2-(3-methylisothiazol-5-ylamino)nicotinamide] | 1 to 10 |

Other lines, results leading:

| IC50 [nM] | Structure (SMILES) |
| --- | --- |
| 10 to 100 | Cc1cc(Nc2cc(N[C@@H]3CCCC[C@@H]3N)c(F)cc2C(N)=O)sn1 [Example 21, 4-((1R,2S)-2-aminocyclohexylamino)-5-fluoro-2-(3-methylisothiazol-5-ylamino)benzamide] |
| 1 to 10 | CC[C@@H](Nc1ccc(C(N)=O)c(Nc2ccc3ncccc3c2)n1)C(N)=O [Example 205, (R)-6-(1-amino-1-oxobutan-2-ylamino)-2-(quinolin-6-ylamino)nicotinamide] |
| 10 to 100 | Cc1cc(Nc2cc(N[C@H](CC(C)C)C(N)=O)c(F)cc2C(N)=O)sn1 [Example 20, (R)-4-(1-amino-4-methyl-1-oxopentan-2-ylamino)-5-fluoro-2-(3-methylisothiazol-5-ylamino)benzamide] |
| 100 to 1000 | Cc1cc(Nc2cc(NC[C@@H](N)CC(C)C)ccc2C(N)=O)sn1 [Example 32, (S)-4-(2-amino-4-methylpentylamino)-2-(3-methylisothiazol-5-ylamino)benzamide] |
| 10 to 100 | C[C@H](N)CNc1nc(Nc2cccc(-c3ncccn3)c2)c(C(N)=O)cc1F [Example 258, (S)-2-(3-(pyrimidin-2-yl)phenylamino)-6-(2-aminopropylamino)-5-fluoronicotinamide] |
| 1 to 10 | NC(=O)c1ccc(N[C@@H]2CCCC[C@@H]2N)nc1Nc1cncc(-n2ccnc2)c1 [Example 161, 2-(5-(1H-imidazol-1-yl)pyridin-3-ylamino)-6-((1R,2S)-2-aminocyclohexylamino)nicotinamide] |
| > 1000 | NC(=O)c1cc(F)c(N[C@@H]2CCCC[C@@H]2N)nc1Nc1cncc(-n2cccn2)c1 [Example 155, 2-(5-(1H-pyrazol-1-yl)pyridin-3-ylamino)-6-((1R,2S)-2-aminocyclohexylamino)-5-fluoronicotinamide] |
| 1 to 10 | NC(=O)c1cc(F)c(N[C@@H]2CCOC[C@@H]2N)nc1Nc1cccc(Cl)c1 [Example 386, 6-((3R,4R)-3-aminotetrahydro-2H-pyran-4-ylamino)-2-(3-chlorophenylamino)-5-fluoronicotinamide] |
| 10 to 100 | CC[C@@H](Nc1nc(Nc2cncc(C)c2)c(C(N)=O)cc1F)C(N)=O [Example 235, (R)-6-(1-amino-1-oxobutan-2-ylamino)-5-fluoro-2-(5-methylpyridin-3-ylamino)nicotinamide] |
| 10 to 100 | CC[C@H](CN)Nc1nc(Nc2cncc(OC)c2)c(C(N)=O)cc1F [Example 96, (R)-6-(1-aminobutan-2-ylamino)-5-fluoro-2-(5-methoxypyridin-3-ylamino)nicotinamide] |
| 10 to 100 | N#Cc1cc(C(N)=O)c(Nc2ccc(-n3cccn3)cc2)nc1N[C@@H]1CCCC[C@@H]1N [Example 121, 2-(4-(1H-pyrazol-1-yephenylamino)-6-(1R,2S)-2-aminocyclohexylamino)-5-cyanonicotinamide] |
| 10 to 100 | CC(C)C[C@@H](Nc1nc(Nc2ccc(F)c(Cl)c2)c(C(N)=O)cc1F)C(N)=O [Example 266, (R)-6-(1-amino-4-methyl-1-oxopentan-2-ylamino)-5-fluoro-2-(3-chloro-4-fluorophenylamino)nicotinamide] |
